Results as given in PubChem BioAssay AID248 (DTP/NCI, 2004).
Inconclusive results and toxic doses are left out.

Tested on: L1210 leukemia ip in BDF1 mice, survival T/C
Test: NCI In Vivo Anticancer Drug Screen. Data for tumor model L1210 Leukemia (intraperitoneal) in B6D2F1 (BDF1) mice
Settings: endpoint: mean survival time, higher = longer survival
In short: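 Mice bearing the transplanted tumor received compound or vehicle. Survival of the treated group was divided by that of the vehicle-treated control group to give the ratio.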

[1] = dose: 100.0 mg/kg/injection, schedule: Q01DX001 (ip), vehicle: saline
[2] = dose: 200.0 mg/kg/injection, schedule: Q01DX001 (ip), vehicle: saline
[3] = dose: 400.0 mg/kg/injection, schedule: Q01DX001 (ip), vehicle: saline
[4] = dose: 100.0 mg/kg/injection, schedule: Q04DX003 (ip), vehicle: saline with Tween-80
[5] = dose: 200.0 mg/kg/injection, schedule: Q04DX003 (ip), vehicle: saline with Tween-80
[6] = dose: 400.0 mg/kg/injection, schedule: Q04DX003 (ip), vehicle: saline with Tween-80
[7] = dose: 100.0 mg/kg/injection, schedule: Q01DX009 (ip), vehicle: saline with Tween-80
[8] = dose: 200.0 mg/kg/injection, schedule: Q01DX009 (ip), vehicle: saline with Tween-80
[9] = dose: 400.0 mg/kg/injection, schedule: Q01DX009 (ip), vehicle: saline with Tween-80
[10] = dose: 100.0 mg/kg/injection, schedule: Q01DX009 (ip), vehicle: saline
[11] = dose: 200.0 mg/kg/injection, schedule: Q01DX009 (ip), vehicle: saline
[12] = dose: 400.0 mg/kg/injection, schedule: Q01DX009 (ip), vehicle: saline
[13] = dose: 75.0 mg/kg/injection, schedule: Q01DX001 (ip), vehicle: saline
[14] = dose: 100.0 mg/kg/injection, schedule: Q04DX002 (ip), vehicle: Klucel (hydroxypropylcellulose) (HPC)
[15] = dose: 200.0 mg/kg/injection, schedule: Q04DX002 (ip), vehicle: Klucel (hydroxypropylcellulose) (HPC)
[16] = dose: 400.0 mg/kg/injection, schedule: Q04DX002 (ip), vehicle: Klucel (hydroxypropylcellulose) (HPC)

SMILES: CNC(=Nc1ccc(NC(=O)NC(=O)c2ccc(C(=O)NC(=O)Nc3ccc(N=C(NC)c4ccccc4)cc3)cc2)cc1)c1ccccc1
- T/C (dose: 62.0 mg/kg/injection, schedule: Q01DX Z (ip), vehicle: carboxymethylcellulose (CMC)): 88 % of control
- T/C (dose: 125.0 mg/kg/injection, schedule: Q01DX Z (ip), vehicle: carboxymethylcellulose (CMC)): 104 % of control
- T/C (dose: 250.0 mg/kg/injection, schedule: Q01DX Z (ip), vehicle: carboxymethylcellulose (CMC)): 92 % of control
- T/C (dose: 500.0 mg/kg/injection, schedule: Q01DX Z (ip), vehicle: carboxymethylcellulose (CMC)): 95 % of control

SMILES: CC(=O)NC(C)(S)C(=O)O (centres undefined)
- T/C [1]: 103 % of control
- T/C [2]: 96 % of control
- T/C [3]: 107 % of control

SMILES: CCCCCCCCCCCCOc1ccc(Br)cc1
- T/C [4]: 98 % of control
- T/C [5]: 92 % of control
- T/C [6]: 96 % of control

SMILES: [Ni+2].[O-]c1ccccc1C=Nc1ccccc1N=Cc1ccccc1[O-]
- T/C (dose: 12.5 mg/kg/injection, schedule: Q01DX009 (ip), vehicle: saline with Tween-80): 93 % of control
- T/C (dose: 25.0 mg/kg/injection, schedule: Q01DX009 (ip), vehicle: saline with Tween-80): 93 % of control
- T/C (dose: 50.0 mg/kg/injection, schedule: Q01DX009 (ip), vehicle: saline with Tween-80): 93 % of control

SMILES: CN(C(=O)CCCO)c1cc([N+](=O)[O-])ccc1OCc1ccccc1
- T/C [7]: 93 % of control
- T/C [4]: 92 % of control
- T/C [8]: 93 % of control
- T/C [5]: 101 % of control
- T/C [9]: 90 % of control
- T/C [6]: 92 % of control

SMILES: CO/C(=C(/C)C(=O)O)c1c(C)cc(C)c(Br)c1C
- T/C (dose: 75.0 mg/kg/injection, schedule: Q01DX009 (ip), vehicle: Klucel (hydroxypropylcellulose) (HPC)): 98 % of control
- T/C (dose: 150.0 mg/kg/injection, schedule: Q01DX009 (ip), vehicle: Klucel (hydroxypropylcellulose) (HPC)): 95 % of control
- T/C (dose: 300.0 mg/kg/injection, schedule: Q01DX009 (ip), vehicle: Klucel (hydroxypropylcellulose) (HPC)): 109 % of control

SMILES: CC(=O)c1c(C)cc(C(C)(C)C)cc1C
- T/C [10]: 97 % of control
- T/C (dose: 100.0 mg/kg/injection, schedule: Q04DX003 (ip), vehicle: saline): 105 % of control
- T/C [11]: 100 % of control
- T/C (dose: 200.0 mg/kg/injection, schedule: Q04DX003 (ip), vehicle: saline): 92 % of control
- T/C [12]: 108 % of control
- T/C (dose: 400.0 mg/kg/injection, schedule: Q04DX003 (ip), vehicle: saline): 100 % of control

SMILES: O=C(COc1cccc(Cl)c1)Nc1ccccc1
- T/C [7]: 94 % of control
- T/C [8]: 100 % of control
- T/C [9]: 89 % of control

SMILES: c1ccc2c(CCCc3nccc4ccccc34)nccc2c1
- T/C (dose: 100.0 mg/kg/injection, schedule: Q01DX001 (ip), vehicle: Klucel (hydroxypropylcellulose) (HPC)): 102 % of control
- T/C (dose: 100.0 mg/kg/injection, schedule: Q04DX003 (ip), vehicle: Klucel (hydroxypropylcellulose) (HPC)): 108 % of control
- T/C (dose: 200.0 mg/kg/injection, schedule: Q01DX001 (ip), vehicle: Klucel (hydroxypropylcellulose) (HPC)): 104 % of control
- T/C (dose: 200.0 mg/kg/injection, schedule: Q04DX003 (ip), vehicle: Klucel (hydroxypropylcellulose) (HPC)): 108 % of control
- T/C (dose: 400.0 mg/kg/injection, schedule: Q01DX001 (ip), vehicle: Klucel (hydroxypropylcellulose) (HPC)): 108 % of control
- T/C (dose: 400.0 mg/kg/injection, schedule: Q04DX003 (ip), vehicle: Klucel (hydroxypropylcellulose) (HPC)): 102 % of control

SMILES: CCCCCCCNC(=O)Nc1cc([N+](=O)[O-])ccc1C
- T/C [7]: 98 % of control
- T/C [8]: 98 % of control
- T/C [9]: 94 % of control

SMILES: CC1=CC(=O)c2c(O)ccc(O)c2C1=O
- T/C (dose: 2.5 mg/kg/injection, schedule: Q04DX003 (ip), vehicle: other): 95 % of control
- T/C (dose: 5.0 mg/kg/injection, schedule: Q01DX001 (ip), vehicle: saline): 101 % of control
- T/C (dose: 5.0 mg/kg/injection, schedule: Q04DX003 (ip), vehicle: other): 103 % of control
- T/C (dose: 10.0 mg/kg/injection, schedule: Q01DX001 (ip), vehicle: saline): 97 % of control
- T/C (dose: 10.0 mg/kg/injection, schedule: Q04DX003 (ip), vehicle: other): 94 % of control
- T/C (dose: 20.0 mg/kg/injection, schedule: Q01DX001 (ip), vehicle: saline): 100 % of control
- T/C (dose: 40.0 mg/kg/injection, schedule: Q01DX001 (ip), vehicle: saline): 102 % of control

SMILES: CC(=O)c1ccc(-c2ccccc2)cc1
- T/C [7]: 91 % of control
- T/C [8]: 93 % of control
- T/C [9]: 96 % of control

SMILES: Cc1c([N+](=O)[O-])cc(C(C)(C)C)c(OC(=S)N(C)C)c1[N+](=O)[O-]
- T/C (dose: 25.0 mg/kg/injection, schedule: Q04DX002 (ip), vehicle: saline with Tween-80): 105 % of control
- T/C (dose: 100.0 mg/kg/injection, schedule: Q04DX002 (ip), vehicle: saline with Tween-80): 86 % of control

SMILES: O=S1(=O)C=C2CCCCC21 (centres undefined)
- T/C (dose: 75.0 mg/kg/injection, schedule: Q01DX001 (ip), vehicle: carboxymethylcellulose (CMC)): 100 % of control

SMILES: CN(Cc1cnc2nc(N[Si](C)(C)C)nc(N[Si](C)(C)C)c2n1)c1ccc(C(=O)NC(CCC(=O)O[Si](C)(C)C)C(=O)O[Si](C)(C)C)cc1 (centres undefined)
- T/C (dose: 0.62 mg/kg/injection, schedule: Q01DX009 (ip), vehicle: saline): 112 % of control
- T/C (dose: 1.25 mg/kg/injection, schedule: Q01DX009 (ip), vehicle: saline with Tween-80): 164 % of control
- T/C (dose: 1.25 mg/kg/injection, schedule: Q01DX009 (ip), vehicle: saline): 119 % of control
- T/C (dose: 2.5 mg/kg/injection, schedule: Q01DX009 (ip), vehicle: saline with Tween-80): 187 % of control
- T/C (dose: 5.0 mg/kg/injection, schedule: Q01DX009 (ip), vehicle: saline with Tween-80): 152 % of control
- T/C (dose: 5.0 mg/kg/injection, schedule: Q01DX009 (ip), vehicle: saline): 183 % of control
- T/C (dose: 10.0 mg/kg/injection, schedule: Q01DX009 (ip), vehicle: saline): 204 % of control

SMILES: C[n+]1cccc(C#N)c1
- T/C (dose: 37.5 mg/kg/injection, schedule: Q04DX003 (ip), vehicle: saline): 100 % of control
- T/C [13]: 106 % of control
- T/C (dose: 75.0 mg/kg/injection, schedule: Q04DX003 (ip), vehicle: saline): 107 % of control
- T/C (dose: 150.0 mg/kg/injection, schedule: Q01DX001 (ip), vehicle: saline): 106 % of control
- T/C (dose: 150.0 mg/kg/injection, schedule: Q04DX003 (ip), vehicle: saline): 91 % of control

SMILES: CCOC(=O)Nc1cc(NC(C)CCCN(CC)CC)nc2nc(-c3ccc(Cl)cc3)cnc12 (centres undefined)
- T/C (dose: 9.5 mg/kg/injection, schedule: Q01DX001 (ip), vehicle: saline): 100 % of control
- T/C (dose: 19.0 mg/kg/injection, schedule: Q01DX001 (ip), vehicle: saline): 102 % of control
- T/C (dose: 38.0 mg/kg/injection, schedule: Q01DX001 (ip), vehicle: saline): 89 % of control
- T/C [13]: 100 % of control

SMILES: O=[N+]([O-])c1ccc(O)c(CNCCCNCc2cc([N+](=O)[O-])ccc2O)c1
- T/C [1]: 102 % of control
- T/C [2]: 98 % of control
- T/C [3]: 102 % of control

SMILES: Cc1cc(=O)oc2c(OC(=O)N(CCCl)CCCl)c(OC(=O)N(CCCl)CCCl)ccc12
- T/C (dose: 25.0 mg/kg/injection, schedule: Q04DX002 (ip), vehicle: Klucel (hydroxypropylcellulose) (HPC)): 90 % of control
- T/C (dose: 50.0 mg/kg/injection, schedule: Q04DX002 (ip), vehicle: Klucel (hydroxypropylcellulose) (HPC)): 94 % of control
- T/C [14]: 97 % of control
- T/C [15]: 90 % of control
- T/C [16]: 103 % of control

SMILES: C(=C/c1nc2ccccc2o1)/c1ccc2c(c1)OCO2
- T/C [14]: 97 % of control
- T/C [15]: 97 % of control
- T/C [16]: 97 % of control

SMILES: O=C(CC1C(=O)Nc2ccccc21)c1ccccc1 (centres undefined)
- T/C [14]: 91 % of control
- T/C [15]: 105 % of control
- T/C [16]: 91 % of control

SMILES: COC(=O)c1ccnc(C(=O)OC)c1
- T/C (dose: 100.0 mg/kg/injection, schedule: Q01DX001 (ip), vehicle: saline sonified): 98 % of control
- T/C [10]: 95 % of control
- T/C (dose: 200.0 mg/kg/injection, schedule: Q01DX001 (ip), vehicle: saline sonified): 103 % of control
- T/C [11]: 95 % of control
- T/C (dose: 400.0 mg/kg/injection, schedule: Q01DX001 (ip), vehicle: saline sonified): 98 % of control
- T/C [12]: 93 % of control
